Results as given in US7462486B2, “Methods of selecting T cell receptor V peptides for therapeutic use” (Oregon Health & Science University, priority 2000, dated 2008).
Entries after “also recorded” stand apart in the source; their conditions may differ.

Key:
Type in all cases: cell-based, human
[1] = test system: IL-10-secreting T cells (PBMC); test: IL-10 ELISPOT: frequency of TCR CDR2 peptide-specific cells in PBMC; conditions: for IL-10 response, MS patients versus HC: comparison in words; for frequency of IL-10-secreting T cells: 5 healthy controls; for frequency of IL-10-secreting T cells / frequency of responding cells (IL-10) in HC: single peptide; for frequency of responding cells (IL-10) in HC: healthy controls (HC); for frequency of responding cells (IL-10) in SPMS patient: MS186; for IL-10 response, SPMS patient versus HC: third SPMS patient (MS186), FIG. 4
Procedure: (§1) Antigens. Antigens used in the ELISPOT assay included ConA (2 μg/ml) and synthetic TCR peptides (25 μg/ml), including 116 known AV and BV gene products.
(§2) T cell frequency. To determine antigen-specific T cell frequency by ELISPOT, blood mononuclear cells were separated by Ficoll density gradient centrifugation, resuspended in 2% human AB serum, and aliquotted at 0.5 and 0.25 million cells in triplicate wells of nitrocellulose-coated microtiter plates (Resolution Technologies) pretreated with anti-IFN-γ (Mabtech, Sweden) or anti-IL-10 (PharMingen, San Diego, Calif.) mAb. Peptides, ConA, and medium were added and the plates incubated at 37 C for 24 hours (IFN-γ) or 48 hours (IL-10). Biotin-labeled secondary mAb for each cytokine was added, followed by streptavidin-alkaline phosphatase (Dako Corp., Carpinteria, Calif.) and substrate (BCIP/NBT phosphatase substrate, KPL, Gaithersburg, Md.) to develop optimal blue staining. Cytokine spots were quantified using an AID Immunospot Analyzer (AID, Cleveland, Ohio) equipped with a high resolution lens camera and analytical software designed for use with the AID system. Mean spots/well were calculated for each Ag, and net counts established after subtraction of background (no Ag). The frequency of Ag-specific spot-forming cells per million PBMC was determined from the average net response observed at two different cell concentrations. The mean net frequency+SEM was calculated for MS patients and HC, and differences compared by Student's t test for significance (p<0.05).
(§3) Preparation of ELISPOT plates. Four flat bottom 96 well plates with nitrocellulose membranes were coated overnight with 4 μg/ml mouse anti-IL-10 monoclonal antibodies (Pharmingen), and an additional 4 plates were coated with 10 μg/ml mouse anti-human INF((Mabtech). Two hours before addition of peptides, plates were washed 3× with sterile PBS, pH 7.2, and blocked for one hour at room temperature with 10% FBS in sterile PBS.
(§4) Blood processing. Twelve tubes of blood (approximately 120 ml) were collected from healthy controls and MS patients. The blood was immediately separated over a Ficoll gradient by centrifugation for 25 minutes at 2100 rpm at 25 degrees. Peripheral blood mononuclear cells (PBMC) so obtained were washed 3× with cold RPMI and resuspended to 10×10^6 cells per ml.
(§5) TCR peptide screens. Sterile stocks containing 1 mg/ml peptide were aliquotted among 4 sterile 96 well polypropylene blocks. Blocks were kept refrigerated for up to one month. Precoated and blocked ELIPSOT plates were washed with 1× with blocking solution and 100 μl of stimulation medium was added (5% fetal bovine serum/1% human AB serum/2 mM pyruvate, 2 mM glutamate, and 50 μg/ml penicillin/streptomycin). 10 μl of each peptide was added per well in triplicate wells. Negative control wells contained RPMI, positive control wells contained 2 μg/ml final concentration ConA. To each well human PBMC were added at a density of 2.5×10^5 cells per well in a total of 8 plates ([…]). Plates were incubated for 24 hours for INF-γ ELISPOTs and for 48 hours for IL-10 ELISPOTs.
(§6) Detection of cytokine producing cells. PBMC were removed from plates by washing with 3× with PBS and 3× with PBS/0.05% Tween, pH 7.6. To each well was added 100 μl of either anti-IFN-γ (1 μg/ml, Mabtech) or anti-IL-10 (2 μg/ml, Pharmingen) and incubated for 4 hours at room temperature in the dark. Plates were washed 4× with PBS/Tween, then 100 μl per well of alkaline-phosphatase-conjugated streptaviden (DAKO) (1:1000 of stock) was added and plates were incubated for 45 minutes at room temperature. Plates were washed 4× with PBS/Tween and 6× with PBS, 1 minute each. 100 μl of BCIP/NBT substrate (KPL laboratories) was added and the color reaction was allowed to develop for 3-7 minutes. Plates were rinsed 3× with distilled water and dried overnight at room temperature.
(§7) Analysis of ELISPOTS. […]

[2] = test system: IFN-γ-secreting T cells (PBMC); test: IFN-γ ELISPOT: frequency of TCR CDR2 peptide-specific cells in PBMC; conditions: for induction of IFN-γ-secreting T cells in HC: 5 HC; for frequency of IFN-γ-secreting cells: 5 healthy controls, mean, single peptide
Procedure: as §1, §2, §3, §4, §5, §6, §7

CD4+CD25− T cells = test: Treg assay of antigen-specific CD4+CD25+ T cell lines; conditions: result in words

ALGQGPQFIFQYYEEEERQRG [BV5S2]
IL-10 response, MS patients versus HC [1]: significantly lower; also recorded: significantly reduced frequencies

DLGHGLRLIHYSYGVKDTNKG [BV12S2A2T]
induction of IFN-γ-secreting T cells in HC [2]: induced IFN-γ-secreting T cells in all 5 HC | IFN-γ recognition by MS patients [2]: poorly recognized

DLGHGLRLIHYSYGVQDTNKG [BV12S2A1T]
induction of IFN-γ-secreting T cells in HC [2]: induced IFN-γ-secreting T cells in all 5 HC | IFN-γ recognition by MS patients [2]: poorly recognized

KHGEAPVFLMILLKGGEQKGH [AV29S1A2T]
frequency of IL-10-secreting T cells ([1]; mean): > 1000 cells/million PBMC | frequency of responding cells (IL-10) in MS patients ([1]; MS patients, mean): > 1500 cells/million | frequency of responding cells (IL-10) in HC [1]: about 1000 cells/million

KLEEELKFLVYFQNEELIQKA [BV10S1P]
frequency of IFN-γ-secreting cells [2]: minimal frequencies | frequency of IL-10-secreting T cells ([1]; mean): > 2000 cells/million PBMC

NQNKEFMLLISFQNEQVLQET [BV19S1P]
frequency of IFN-γ-secreting cells [2]: 900 cells/million PBMC

SLGQGPEFLIYFQGTGAADDS [BV6S1A1N1]
IL-10 response, MS patients versus HC [1]: significantly lower | IL-10 response, MS patients versus HC ([1]; listed as BV6S1A1N1T): significantly reduced frequencies

SSGEMIFLIYQGSYDQQNATE [ADV6S1A1N1]
induction of IFN-γ-secreting T cells in HC [2]: induced IFN-γ-secreting T cells in all 5 HC | IFN-γ recognition by MS patients [2]: poorly recognized

Tetanus toxoid
Treg activity of T cell line specific for the antigen (CD4+CD25− T cells): did not have any detectable Treg activity

VLKNEFKFLISFQNENVFDET [BV25S1A1T]
frequency of responding cells (IL-10) in SPMS patient [1]: 450 cells/million | frequency of responding cells (IL-10) in HC [1]: 150 cells/million | IL-10 response, SPMS patient versus HC [1]: responded better than HC

YPNQGLQLLLKYTSAATLVKG [AV1S2A1N1T]
frequency of responding cells (IL-10) in SPMS patient [1]: 300 cells/million | frequency of responding cells (IL-10) in two symptomatic RRMS patients ([1]; MS193 and MS74): > 1700 cells/million | frequency of responding cells (IL-10) in HC [1]: < 25 cells/million | IL-10 response, SPMS patient versus HC [1]: responded better than HC
